Where a SMILES comes first, the peptide text is derived from it. [ ]: non-standard residue; d: D form.
Tested on: Mycobacterium tuberculosis complex (MTBC) clinical isolates
Details: 96 h

CC(C)[C@@H](NC(=O)[C@H](N)Cc1c[nH]c2ccccc12)C(=O)N[C@@H](C(=O)N[C@H](Cc1c[nH]c2ccccc12)C(=O)N[C@H](Cc1c[nH]cn1)C(=O)N[C@H](CCCNC(=N)N)C(=O)N[C@H](CCCNC(=N)N)C(=O)N[C@H](Cc1c[nH]c2ccccc12)C(=O)N[C@H](Cc1c[nH]c2ccccc12)C(=O)N[C@H](Cc1c[nH]cn1)C(=O)N[C@H](Cc1c[nH]c2ccccc12)C(=O)N[C@H](CCCNC(=N)N)C(=O)N[C@H](CCCCN)C(N)=O)C(C)C [MAD1-RI] (H-[dW][dV][dV][dW][dH][dR][dR][dW][dW][dH][dW][dR][dK]-NH2)
MICs against a panel of drug-resistant clinical Mtb isolates: ≤ 40 µM

— PMC12800093 (Nature Communications, 2025)
